Key:
Type in all cases: biochemical, Rhodotorula toruloides
[1] = test system: RTO4_11882 (D-galUA reductase, GAR1 homolog); experiment: NADPH loss at […] nm; conditions: 0.3 mM NADPH, pH 7, 30°C
[2] = test system: T1, RTO4_12062 (L-galactonate dehydratase); experiment: semicarbazide assay at […] nm; conditions: 5 mM MgCl2, 50 mM sodium phosphate pH 7.0; tag removed
T1 construct: gene GaaB; full-length, N-terminal HIS6-TEV tag removed by TEV protease, expressed in E. coli Rosetta, IMAC

[3] = test system: T2, RTO4_9774 (L-glyceraldehyde reductase); experiment: NADPH loss at […] nm; conditions: 0.3 mM NADPH, pH 7, 30°C
T2 construct: gene GaaD

O=C(O)[C@H]1OC(O)[C@H](O)[C@@H](O)[C@H]1O (stereo partly drawn) [D-galUA]
Km [1]: ~7 mM

O=C(O)[C@@H](O)[C@H](O)[C@H](O)[C@@H](O)CO [L-galactonate]
Km [2]: 5.8 mM

O=C[C@@H](O)CO [L-glyceraldehyde]
Km [3]: 900 µM

From article PMC6918025, “Genomewide and Enzymatic Analysis Reveals Efficient D-Galacturonic Acid Metabolism in the Basidiomycete Yeast Rhodosporidium toruloides” (mSystems, 2019)
